Structures are written as SMILES. pIC50: −log10 of the molar value. Where only a bound is given, the exact number is not on record here.

What all share (type): biochemical
Assay [1] deals with T1, CDC25B (Homo sapiens, UniProt P30305).
T1 construct: fusion proteins which only carry the PTP activity domain were expressed in Escherichia coli DH5α; GST (N); made in house; host or cells: Escherichia coli DH5α
T1 sequence (P30305 431-538 limits assumed): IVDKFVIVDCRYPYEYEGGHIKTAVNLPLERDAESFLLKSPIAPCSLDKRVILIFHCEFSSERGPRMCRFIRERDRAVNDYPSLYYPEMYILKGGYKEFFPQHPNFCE
Description: PTP assay with pNPP as substrate, CDC25B. The conditions noted are these: GST-ΔCDC25B PTP activity domain, 37 °C, pH 5.5. From the text:
(§1) Protein tyrosine phosphatases (PTPs) constitute a large family of signaling enzymes that control the cellular levels of protein tyrosine phosphorylation. Several “classical” PTPs are attractive therapeutic targets, including PTP1B for obesity and Type II diabetes, SHP1, and SHP2 and CDC25B for cancer. GST-ΔPTP1B, GST-ΔSHP2, GST-ΔSHP1, GST-ΔLAR and GST-ΔCDC25B fusion proteins which only carry the PTP activity domain were expressed in Escherichia coli DH5α and affinity purified with glutathione Sepharose (Amersham Biosciences, Piscataway, NJ, USA). p-Nitrophenyl phosphate (pNPP) was used in the enzymatic reactions to determine the intrinsic catalytic activities of the PTPs. All assays using pNPP as the substrate were performed in a buffered reaction medium containing 10 mM of sodium acetate (NaAc), 1 mM of ethylenediaminetetraacetic acid and 1 mM of dithiothreitol at 37 °C, pH 5.5. Sodium orthovanadate was used as the positive control. Every experiment was performed in triplicate. The inhibitory activity measurements of PTPs were performed with different concentrations (0, 2.5, 5, 10, 20, 40 µg mL^−1) of inhibitor and 20 µg mL^−1 of PTPs. The reaction mixture was incubated at 37 °C for 15 min and the catalytic activity was detected by monitoring the absorbance at 405 nm immediately after adding 12.5 mM of pNPP. IC50 (the concentration of an inhibitor that is required for 50% inhibition of an enzyme) data were derived from the experimental results.

Assay [2] addresses T2, LAR (Homo sapiens, UniProt P10586).
T2 construct: fusion proteins which only carry the PTP activity domain were expressed in Escherichia coli DH5α; GST (N); made in house; host or cells: Escherichia coli DH5α
T2 sequence (P10586 1352-1607 limits assumed): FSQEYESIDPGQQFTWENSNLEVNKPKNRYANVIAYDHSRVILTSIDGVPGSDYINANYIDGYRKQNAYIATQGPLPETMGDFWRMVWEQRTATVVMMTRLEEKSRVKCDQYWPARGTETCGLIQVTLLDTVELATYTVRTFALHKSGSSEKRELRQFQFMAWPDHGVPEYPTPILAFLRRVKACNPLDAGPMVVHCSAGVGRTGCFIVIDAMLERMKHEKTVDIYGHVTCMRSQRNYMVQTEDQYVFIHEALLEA
Kind of assay: PTP assay with pNPP as substrate, LAR. The conditions noted are these: GST-ΔLAR PTP activity domain, 37 °C, pH 5.5.
From the text: as §1

Assay [3] addresses T3, SHP2 (Homo sapiens, UniProt Q06124).
T3 construct: fusion proteins which only carry the PTP activity domain were expressed in Escherichia coli DH5α; GST (N); made in house; host or cells: Escherichia coli DH5α
T3 sequence (Q06124 247-517 limits assumed): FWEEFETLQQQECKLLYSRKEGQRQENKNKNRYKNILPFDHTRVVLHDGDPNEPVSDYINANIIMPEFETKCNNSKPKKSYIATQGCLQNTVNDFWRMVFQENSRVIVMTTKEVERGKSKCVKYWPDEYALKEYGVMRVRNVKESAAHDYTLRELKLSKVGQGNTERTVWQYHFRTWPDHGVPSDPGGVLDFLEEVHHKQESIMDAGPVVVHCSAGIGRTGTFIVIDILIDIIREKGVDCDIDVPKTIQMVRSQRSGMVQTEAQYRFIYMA
Description: PTP assay with pNPP as substrate, SHP2. As to conditions: GST-ΔSHP2 PTP activity domain, 37 °C, pH 5.5.
From the text: as §1

In assay [4] the target is T4, PTP1B (Homo sapiens, UniProt P18031).
T4 construct: fusion proteins which only carry the PTP activity domain were expressed in Escherichia coli DH5α; GST (N); made in house; host or cells: Escherichia coli DH5α
T4 sequence (P18031 3-277 limits assumed): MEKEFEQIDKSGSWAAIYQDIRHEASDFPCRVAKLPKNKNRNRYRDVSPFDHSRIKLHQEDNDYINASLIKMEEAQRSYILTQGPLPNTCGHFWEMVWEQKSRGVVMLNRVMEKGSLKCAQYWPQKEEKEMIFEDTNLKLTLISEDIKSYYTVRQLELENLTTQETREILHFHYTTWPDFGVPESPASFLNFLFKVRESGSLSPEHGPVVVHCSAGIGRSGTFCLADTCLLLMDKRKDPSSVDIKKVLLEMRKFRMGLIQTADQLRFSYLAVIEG
Description: PTP assay with pNPP as substrate, PTP1B. As to conditions: GST-ΔPTP1B PTP activity domain, 37 °C, pH 5.5. From the text:
Protein tyrosine phosphatases (PTPs) constitute a large family of signaling enzymes that control the cellular levels of protein tyrosine phosphorylation. Several “classical” PTPs are attractive therapeutic targets, including PTP1B for obesity and Type II diabetes, SHP1, and SHP2 and CDC25B for cancer. GST-ΔPTP1B, GST-ΔSHP2, GST-ΔSHP1, GST-ΔLAR and GST-ΔCDC25B fusion proteins which only carry the PTP activity domain were expressed in Escherichia coli DH5α and affinity purified with glutathione Sepharose (Amersham Biosciences, Piscataway, NJ, USA). p-Nitrophenyl phosphate (pNPP) was used in the enzymatic reactions to determine the intrinsic catalytic activities of the PTPs. All assays using pNPP as the substrate were performed in a buffered reaction medium containing 10 mM of sodium acetate (NaAc), 1 mM of ethylenediaminetetraacetic acid and 1 mM of dithiothreitol at 37 °C, pH 5.5. […] Every experiment was performed in triplicate. The inhibitory activity measurements of PTPs were performed with different concentrations (0, 2.5, 5, 10, 20, 40 µg mL^−1) of inhibitor and 20 µg mL^−1 of PTPs. The reaction mixture was incubated at 37 °C for 15 min and the catalytic activity was detected by monitoring the absorbance at 405 nm immediately after adding 12.5 mM of pNPP.

Assay [5] deals with T5, SHP1 (Homo sapiens, UniProt P29350).
T5 construct: fusion proteins which only carry the PTP activity domain were expressed in Escherichia coli DH5α; GST (N); made in house; host or cells: Escherichia coli DH5α
T5 sequence (P29350 244-515 limits assumed): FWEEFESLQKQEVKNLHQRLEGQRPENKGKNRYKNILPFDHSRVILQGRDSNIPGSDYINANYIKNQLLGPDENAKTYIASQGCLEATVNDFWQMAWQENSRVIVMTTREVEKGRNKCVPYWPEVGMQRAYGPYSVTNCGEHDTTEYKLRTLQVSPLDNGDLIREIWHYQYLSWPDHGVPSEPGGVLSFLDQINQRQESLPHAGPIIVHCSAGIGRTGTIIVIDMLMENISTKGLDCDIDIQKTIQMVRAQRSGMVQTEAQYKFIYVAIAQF
Description: PTP assay with pNPP as substrate, SHP1. The conditions noted are these: GST-ΔSHP1 PTP activity domain, 37 °C, pH 5.5.
From the text: as §1

The term pIC50 denotes the negative decadic logarithm of the IC50, by convention in mol/L. Read a high pIC50 as a low IC50. For `CC1(O)C2OC(=O)CCC(=O)NC3(Oc4ccc(C(=O)O)c(O)c4C(=O)C13)C2(C)O` (single isomer, unassigned; (+)) [Compound 3], the negative-log IC50 (pIC50) is 4.74 in assay [1]; below 3.93 in assay [2]; 4.87 in assay [3]; 4.76 in assay [4]; 4.93 in assay [5].
Consider `COC(c1cc2c([nH]1)C(=O)c1cc(C(OC)C(C)C)[nH]c1C2=O)C(C)C` (centres unmarked) [Compound 1, 2,6-bis(1-methoxy-2-methylpropyl) pyrrolo[2,3-f]indole-4,8(1H,5H)-dione], for which the negative logarithm of the IC50 (pIC50) in assay [1] was 4.94; in assay [2], 4.53; in assay [3], below 3.86; in assay [4] it was 4.46; in assay [5] it was 4.81.
In the same order, the values of `Cc1cc(O)cc(O)c1C(=O)O[C@]1(C)C(=O)C=C2C=C(/C=C/C(=O)O)OC[C@H]2[C@@H]1O` [Compound 2, (E)-3-((7S,8S,8aS)-7-((2,4-dihydroxy-6-methylbenzoyl)oxy)-8-hydroxyl-7-methyl-6-oxo-6,7,8,8a-tetra-hydro-1H-isochromen-3-yl)acrylic acid] are 4.97, 4.95, 4.72, 4.79 and 5.09.
As to `[Na+].[Na+].[Na+].[O]=[V]([O-])([O-])[O-]` [Sodium orthovanadate, reference compound], the “IC50 Values SHP2” value in assay [3] was found to be 122.2 µg/mL. Besides, the “IC50 Values SHP1” value in assay [5] turned out to be 4.3 µg/mL.

Values taken from PMC6272775, “Three New Pigment Protein Tyrosine Phosphatases Inhibitors from the Insect Parasite Fungus Cordyceps gracilioides: Terreusinone A, Pinophilin C and Cryptosporioptide A” (Molecules, 2015).
